In data set [1] the test system is P-gp, MRP1 and BCRP transporters. The data set can be described thus: Selectivity for ABC transporters, determined from % of reversion (Tables 1 and 2). It is filed as cell-based, human. The conditions noted are these: determined from % of reversion in Table 1 (>80% strongly, 79-50% moderately selective). The text has this:
Generally, the triazole dimers library can be divided into mono-selective, dual-selective and multi-selective ABC transporter modulators. Table 2 summarizes the selectivity of different active triazole dimers and some monomeric azides for the ABC transporters. […] From the study, it seems that the simple monomeric azides could be a highly BCRP-selective inhibitor. […] It is possible that differently selective (mono-, dual- and multi-) inhibitors of drug transporters could be potentially useful tools for investigation of complicated drug-resistance phenotypes and eventually, for treatment of drug-resistant cancers caused by overexpression of ABC transporters.
The selectivity of active triazole compounds for various ABC transporters was determined from the Table 1. It would be considered as strongly selective if it causes >80% of reversion. It would be considered as moderately selective if it results in 79-50% of reversion. Overall, the active triazole compounds can be divided into mono-, dual- and multi-selective for P-gp, MRP1 and BCRP transporters.

The nature of data set [2]: in vitro. Particulars: mouse.
Data set [3] concerns the target T1, BCRP (Homo sapiens, UniProt Q9UNQ0).
T1 sequence (Q9UNQ0 1-655): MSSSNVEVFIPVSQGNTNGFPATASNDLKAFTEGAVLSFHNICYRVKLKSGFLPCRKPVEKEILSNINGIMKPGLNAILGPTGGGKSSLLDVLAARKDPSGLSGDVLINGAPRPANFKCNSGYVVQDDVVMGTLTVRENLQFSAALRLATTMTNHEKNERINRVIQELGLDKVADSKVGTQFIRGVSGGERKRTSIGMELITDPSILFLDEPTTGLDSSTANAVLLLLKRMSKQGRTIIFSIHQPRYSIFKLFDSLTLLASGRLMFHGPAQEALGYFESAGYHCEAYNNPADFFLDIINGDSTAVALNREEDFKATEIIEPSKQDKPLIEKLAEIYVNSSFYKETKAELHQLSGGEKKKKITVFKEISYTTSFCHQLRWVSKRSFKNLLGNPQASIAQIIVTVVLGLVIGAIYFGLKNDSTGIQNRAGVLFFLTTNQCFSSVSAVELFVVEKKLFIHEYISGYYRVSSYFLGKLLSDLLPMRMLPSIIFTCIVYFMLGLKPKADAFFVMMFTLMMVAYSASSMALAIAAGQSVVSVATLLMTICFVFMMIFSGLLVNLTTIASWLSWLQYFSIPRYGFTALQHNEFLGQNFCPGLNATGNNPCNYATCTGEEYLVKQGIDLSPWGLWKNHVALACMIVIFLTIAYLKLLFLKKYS
The data set can be described thus: cell-based.

Data set [4] deals with T1, BCRP. The data set can be described thus: Reversal of BCRP-mediated topotecan resistance in MCF7-MX100 cells (cell proliferation assay). Particulars: for Topotecan resistance of MCF7-MX100 Therapeutic index: (IC50 towards L929 or Raw264.7)/(EC50 for reversing drug resistance).
Data set [5] deals with MRP1 (Homo sapiens, UniProt P33527). Put plainly: Reversal of MRP1-mediated DOX resistance in 2008/MRP1 cells (cell proliferation assay). Particulars: for DOX resistance of 2008/MRP1 Therapeutic index: (IC50 towards L929 or Raw264.7)/(EC50 for reversing drug resistance); for % of reversion of sensitivity of 2008/MRP1 towards DOX: triazole dimers at 1.0 μM.

Where only a bound is given, the exact number is not on record here.

MRP1, sequence (P33527 whole entry): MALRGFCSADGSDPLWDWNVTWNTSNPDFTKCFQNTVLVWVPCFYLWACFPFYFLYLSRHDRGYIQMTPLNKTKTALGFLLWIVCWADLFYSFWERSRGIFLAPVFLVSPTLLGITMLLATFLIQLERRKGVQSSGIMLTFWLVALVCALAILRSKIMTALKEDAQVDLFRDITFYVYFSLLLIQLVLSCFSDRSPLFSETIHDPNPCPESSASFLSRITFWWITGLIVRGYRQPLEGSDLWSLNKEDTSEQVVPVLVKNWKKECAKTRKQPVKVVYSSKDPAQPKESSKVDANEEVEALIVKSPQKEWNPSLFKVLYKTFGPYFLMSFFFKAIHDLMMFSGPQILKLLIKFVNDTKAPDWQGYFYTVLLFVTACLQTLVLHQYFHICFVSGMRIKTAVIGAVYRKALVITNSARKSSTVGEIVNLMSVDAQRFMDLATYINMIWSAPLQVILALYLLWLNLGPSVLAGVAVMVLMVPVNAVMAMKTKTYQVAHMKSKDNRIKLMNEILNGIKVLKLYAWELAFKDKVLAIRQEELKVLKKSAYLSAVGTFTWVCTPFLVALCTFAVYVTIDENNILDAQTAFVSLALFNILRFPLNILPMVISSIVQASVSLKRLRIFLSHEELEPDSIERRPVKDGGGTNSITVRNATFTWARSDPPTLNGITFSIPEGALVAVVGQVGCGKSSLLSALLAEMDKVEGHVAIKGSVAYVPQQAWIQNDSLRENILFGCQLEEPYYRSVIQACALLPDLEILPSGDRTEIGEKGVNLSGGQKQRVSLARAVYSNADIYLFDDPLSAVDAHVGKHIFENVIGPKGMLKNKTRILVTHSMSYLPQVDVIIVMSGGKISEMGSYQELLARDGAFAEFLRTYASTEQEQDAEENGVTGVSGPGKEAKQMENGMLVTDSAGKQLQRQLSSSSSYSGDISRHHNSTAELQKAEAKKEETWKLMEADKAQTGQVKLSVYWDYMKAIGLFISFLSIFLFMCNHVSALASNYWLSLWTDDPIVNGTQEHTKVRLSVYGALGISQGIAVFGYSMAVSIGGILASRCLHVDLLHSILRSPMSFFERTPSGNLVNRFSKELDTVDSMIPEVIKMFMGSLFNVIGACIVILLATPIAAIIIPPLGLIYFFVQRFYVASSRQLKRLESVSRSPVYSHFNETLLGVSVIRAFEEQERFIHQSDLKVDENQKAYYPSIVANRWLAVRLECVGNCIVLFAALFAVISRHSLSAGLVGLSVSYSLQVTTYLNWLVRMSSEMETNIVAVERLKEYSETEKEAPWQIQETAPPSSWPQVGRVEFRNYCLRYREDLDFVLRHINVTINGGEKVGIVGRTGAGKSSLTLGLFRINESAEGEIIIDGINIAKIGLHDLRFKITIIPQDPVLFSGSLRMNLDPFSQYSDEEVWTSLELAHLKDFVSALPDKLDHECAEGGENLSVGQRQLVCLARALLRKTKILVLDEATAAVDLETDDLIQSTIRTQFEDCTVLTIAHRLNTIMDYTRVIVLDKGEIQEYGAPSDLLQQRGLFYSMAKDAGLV

As for `COC(=O)c1cccc(COc2c(-c3ccc(OCCOCCOCCn4cc(CN(Cc5ccccc5)Cc5cn(CCOCCOCCOc6ccc(-c7oc8ccccc8c(=O)c7OCc7cccc(C(=O)OC)c7)cc6)nn5)nn4)cc3)oc3ccccc3c2=O)c1` [Ac15Az9, Dimethyl 3,3′-(((2,2′-((((((((4,4′-((benzylazanediyl)bis(methylene))bis(1H-1,2,3-triazole-4,1-diyl))bis(ethane-2,1-diyl))bis(oxy))bis(ethane-2,1-diyl))bis(oxy))bis(ethane-2,1-diyl))bis(oxy))bis(4,1-phenylene))bis(4-oxo-4H-chromene-3,2-diyl))bis(oxy))bis(methylene))dibenzoate], the “Selectivity for ABC transporters (P-gp, MRP1, BCRP)” value (shortened to “Selectivity … (P-gp, MRP1, BCRP)”) in data set [1] is recorded as “mono-BCRP selectivity”. Moreover, in data set [2], the IC50 (in general, the concentration that inhibits the measured activity by half) at 5 days is above 100 µM. Also, the EC50 (usually the midpoint of the concentration-response curve) in data set [3] was at most 0.01 µM. Also, the “Topotecan resistance of MCF7-MX100 Therapeutic index” value in data set [4] was above 50000.0.
For `COC(=O)c1cccc(COc2c(-c3ccc(OCCOCCOCCN=[N+]=[N-])cc3)oc3ccccc3c2=O)c1` [Az9, Methyl 3-(((2-(4-(2-(2-(2-azidoethoxy)ethoxy)ethoxy)phenyl)-4-oxo-4H-chromen-3-yl)oxy)methyl)benzoate], the “Selectivity … (P-gp, MRP1, BCRP)” value in data set [1] was “mono-BCRP selectivity”. For the same compound, the IC50 at 5 days in data set [2] came out at 20.6 µM. Besides, the EC50 in data set [3] was at most 0.01 µM. Also, the “Topotecan resistance of MCF7-MX100 Therapeutic index” value in data set [4] amounted to 2019.6.
On to `O=c1cc(-c2ccc(OCCOCCn3cc(CN(Cc4ccccc4)Cc4cn(CCOCCOc5ccc(-c6cc(=O)c7ccccc7o6)cc5)nn4)nn3)cc2)oc2ccccc12` [Ac15Az1, 2,2′-((((((4,4′-((Benzylazanediyl)bis(methylene))bis(1H-1,2,3-triazole-4,1-diyl))bis(ethane-2,1-diyl))bis(oxy))bis(ethane-2,1-diyl))bis(oxy))bis(4,1-phenylene))bis(4H-chromen-4-one)], for which, in data set [1], the “Selectivity … (P-gp, MRP1, BCRP)” value is “MRP1- and BCRP-dual selectivity”. The compound further yielded an IC50 at 5 days in data set [2] above 100 µM. The compound also registered an EC50 in data set [3] of 0.111 ± 0.009 µM.
On to `COC(=O)c1cccc(COc2c(-c3ccc(OCCOCCn4cc(CN(Cc5ccccc5)Cc5cn(CCOCCOc6ccc(-c7oc8ccccc8c(=O)c7OCc7cccc(C(=O)OC)c7)cc6)nn5)nn4)cc3)oc3ccccc3c2=O)c1` [Ac15Az8, Dimethyl 3,3′-(((2,2′-((((((4,4′-((benzylazanediyl)bis(methylene))bis(1H-1,2,3-triazole-4,1-diyl))bis(ethane-2,1-diyl))bis(oxy))bis(ethane-2,1-diyl))bis(oxy))bis(4,1-phenylene))bis(4-oxo-4H-chromene-3,2-diyl))bis(oxy))bis(methylene))dibenzoate], for which, in data set [1], the “Selectivity … (P-gp, MRP1, BCRP)” value was “mono-BCRP selectivity”. In data set [2], this compound gave an IC50 at 5 days above 100 µM. Also, in data set [3], the EC50 was at most 0.01 µM. Besides, in data set [4], the “Topotecan resistance of MCF7-MX100 Therapeutic index” value is on record as above 76923.1.
Take `Cc1ccc2oc(-c3ccc(OCCCCc4cn(CCOCCOCCOc5ccc(-c6oc7ccccc7c(=O)c6OCc6ccccc6)cc5)nn4)cc3)cc(=O)c2c1` [Ac5Az5, 3-(Benzyloxy)-2-(4-(2-(2-(2-(4-(4-(4-(6-methyl-4-oxo-4H-chromen-2-yl)phenoxy)butyl)-1H-1,2,3-triazol-1-yl)ethoxy)ethoxy)ethoxy)phenyl)-4H-chromen-4-one]: the “Selectivity … (P-gp, MRP1, BCRP)” value in data set [1] is “Pgp- and BCRP-dual selectivity”. In data set [2], this compound had an IC50 at 5 days above 100 µM. Moreover, in data set [3], the EC50 turned out to be 0.033 µM.
As to `Cc1ccc2oc(-c3ccc(OCCOCCOCCn4cc(CN(CCOc5ccc6c(=O)cc(-c7ccccc7)oc6c5)Cc5ccccc5)nn4)cc3)cc(=O)c2c1` [Ac16Az3, 7-(2-(Benzyl((1-(2-(2-(2-(4-(6-methyl-4-oxo-4H-chromen-2-yl)phenoxy)ethoxy)ethoxy)ethyl)-1H-1,2,3-triazol-4-yl)methyl)amino)ethoxy)-2-phenyl-4H-chromen-4-one], the “Selectivity … (P-gp, MRP1, BCRP)” value in data set [1] is on record as “mono-MRP1 selectivity”. The IC50 at 5 days in data set [2] was above 100 µM. Further, the “DOX resistance of 2008/MRP1 Therapeutic index” value in data set [5] is above 726.2.
Turning to `O=c1c(OCc2ccccc2)c(-c2ccc(OCCOCCOCCn3cc(CN(Cc4ccccc4)Cc4cn(CCOCCOCCOc5ccc(-c6oc7ccccc7c(=O)c6OCc6ccccc6)cc5)nn4)nn3)cc2)oc2ccccc12` [Ac15Az5, 2,2′-((((((((4,4′-((Benzylazanediyl)bis(methylene))bis(1H-1,2,3-triazole-4,1-diyl))bis(ethane-2,1-diyl))bis(oxy))bis(ethane-2,1-diyl))bis(oxy))bis(ethane-2,1-diyl))bis(oxy))bis(4,1-phenylene))bis(3-(benzyloxy)-4H-chromen-4-one)], the “Selectivity … (P-gp, MRP1, BCRP)” value in data set [1] is reported as “mono-BCRP selectivity”. For the same compound, the IC50 at 5 days in data set [2] was above 100 µM. Moreover, in data set [3], the EC50 is 0.048 µM.
`Cc1ccc2oc(-c3ccc(OCCCCc4cn(CCOCCOCCOc5ccc(-c6cc(=O)c7cc(F)ccc7o6)cc5)nn4)cc3)cc(=O)c2c1` [Ac5Az4, 6-Fluoro-2-(4-(2-(2-(2-(4-(4-(4-(6-methyl-4-oxo-4H-chromen-2-yl)phenoxy)butyl)-1H-1,2,3-triazol-1-yl)ethoxy)ethoxy)ethoxy)phenyl)-4H-chromen-4-one] yielded an IC50 at 5 days in data set [2] above 100 µM. Also, a half-maximal response in data set [3] (EC50) required 0.018 µM.
For the compound `Cc1ccc2oc(-c3ccc(OCCCCc4cn(CCOCCOc5ccc(-c6oc7ccccc7c(=O)c6OCc6ccccc6)cc5)nn4)cc3)cc(=O)c2c1` [Ac5Az10, 3-(Benzyloxy)-2-(4-(2-(2-(4-(4-(4-(6-methyl-4-oxo-4H-chromen-2-yl)phenoxy)butyl)-1H-1,2,3-triazol-1-yl)ethoxy)ethoxy)phenyl)-4H-chromen-4-one], in data set [1], the “Selectivity … (P-gp, MRP1, BCRP)” value is “mono-BCRP selectivity”. In data set [2], this compound returned an IC50 at 5 days above 100 µM. Moreover, the “Topotecan resistance of MCF7-MX100 Therapeutic index” value in data set [4] is above 13333.3. Also, the “% of reversion of sensitivity of MCF7-MX100 towards topotecan” value in data set [4] (triazole dimers at 1.0 μM) is “about 80.0%”.
On to `[N-]=[N+]=NCCOCCOc1ccc(-c2oc3ccccc3c(=O)c2OCc2ccccc2)cc1` [Az10, 2-(4-(2-(2-Azidoethoxy)ethoxy)phenyl)-3-(benzyloxy)-4H-chromen-4-one], for which the “Selectivity … (P-gp, MRP1, BCRP)” value in data set [1] is given as “mono-BCRP selectivity”. In data set [2], this compound gave an IC50 at 5 days of 51 µM. Further, in data set [3], it took 0.032 µM to reach a half-maximal effect (EC50).
On to `O=c1cc(-c2ccccc2)oc2cc(OCCOCCOCCn3cc(CN(CCOc4ccc5c(=O)cc(-c6ccccc6)oc5c4)Cc4ccccc4)nn3)ccc12` [Ac16Az12, 7-(2-(Benzyl((1-(2-(2-(2-((4-oxo-2-phenyl-4H-chromen-7-yl)oxy)ethoxy)ethoxy)ethyl)-1H-1,2,3-triazol-4-yl)methyl)amino)ethoxy)-2-phenyl-4H-chromen-4-one], for which, in data set [1], the “Selectivity … (P-gp, MRP1, BCRP)” value is listed as “mono-MRP1 selectivity”. Besides, in data set [2], the IC50 at 5 days was above 100 µM. Besides, in data set [5], the “DOX resistance of 2008/MRP1 Therapeutic index” value is reported as above 480.8.
In the case of `O=C(/C=C/c1ccc(OCCCCc2cn(CCOCCOc3ccc(-c4cc(=O)c5ccccc5o4)cc3)nn2)cc1)c1ccc(F)cc1O` [Ac10Az1, (E)-2-(4-(2-(2-(4-(4-(4-(3-(4-Fluoro-2-hydroxyphenyl)-3-oxoprop-1-en-1-yl)phenoxy)butyl)-1H-1,2,3-triazol-1-yl)ethoxy)ethoxy)phenyl)-4H-chromen-4-one], in data set [1], the “Selectivity … (P-gp, MRP1, BCRP)” value was “MRP1- and BCRP-dual selectivity”. Further, the “% of reversion of sensitivity of 2008/MRP1 towards DOX” value in data set [5] was around 54.8%.
In the case of `O=c1cc(-c2ccccc2)oc2cc(OCCN(Cc3ccccc3)Cc3cn(CCOCCOCCOc4ccc(-c5oc6ccccc6c(=O)c5OCc5ccccc5)cc4)nn3)ccc12` [Ac16Az5, 7-(2-(Benzyl((1-(2-(2-(2-(4-(3-(benzyloxy)-4-oxo-4H-chromen-2-yl)phenoxy)ethoxy)ethoxy)ethyl)-1H-1,2,3-triazol-4-yl)methyl)amino)ethoxy)-2-phenyl-4H-chromen-4-one], the “Selectivity … (P-gp, MRP1, BCRP)” value in data set [1] is given as “mono-MRP1 selectivity”. This compound displayed an IC50 at 5 days in data set [2] above 100 µM. In addition, in data set [5], the “DOX resistance of 2008/MRP1 Therapeutic index” value is above 331.5 and the “% of reversion of sensitivity of 2008/MRP1 towards DOX” value is on record as “about 77.8%”.

The values above are taken from patent US9611256B2, “Alkyne-, azide- and triazole-containing flavonoids as modulators for multidrug resistance in cancers” (The Hong Kong Polytechnic University, priority 2012, dated 2017).
